In US20060147481A1 (priority 2005, published 2006):

Columns and labels:
platelet cyclo-oxygenase = conditions: horse, oral; cited from earlier work
swine influenza = assay type: in vivo, swine (finishing hogs)
chronic laminitis = experiment: Horse with chronic laminitis, Ketoprofen in the water; assay type: in vivo; conditions: 1 mg per pound in the water for 2 weeks
Source text: An equine client with a horse with chronic laminitis was using phenylbutazone to try to control the inflammation and pain associated with the disease. This product had to be given to the horse daily by the owner. […] The results were very good.

[1] = system: PRRS (Porcine Respiratory and Reproductive Syndrome) Virus; experiment: PRRS virus outbreak in swine nursery, Ketoprofen orally; assay type: in vivo; conditions: orally for 7 days along with same other therapy as controls
Source text: A swine client with a 10,000 head nursery was experiencing severe mortality due to a PRRS (Porcine Respiratory and Reproductive Syndrome) Virus outbreak. They had used antibiotics with only partial success and were seeing mortalities as high as 30 percent in the group. […] We also saw less chronic pigs in the treatment group 3% versus 15% in the controls.

[2] = 1 mg/pound for 3 days orally through drinking water

| SMILES | duration of inhibition of platelet cyclo-oxygenase (platelet cyclo-oxygenase) [h] | morbidity at the time of the outbreak (swine influenza; [2]) [%] | mortality (swine influenza; [2]) [%] | average time to market, less than the control group (swine influenza; 1 mg/pound for 3 days orally through drinking water, 150 pound hogs marketed at 260 pounds) [days] | follow-up mass medication with antibiotics (swine influenza; two weeks after the outbreak) | pain compared with previous treatment (phenylbutazone) (chronic laminitis) | chronic pigs [1] [%] | mortality [1] [%] |
| --- | --- | --- | --- | --- | --- | --- | --- | --- |
| CN=C1CCN(c2cccc(C(F)(F)F)c2)N1 [BW540C] | 24 | – | – | – | – | – | – | – |
| CC(C(=O)O)c1cccc(C(=O)c2ccccc2)c1 (centres unmarked) [Ketoprofen] | – | 10 | 2.1 | 9 | did not require any mass medication with antibiotics | less painful | 3 | 7 |
